The subject of the experiment is 168753-222-R-J1-PDC complex spheroid viability. Briefly: Anticancer human tumor 168753-222-R-J1-PDC patient-derived bladder carcinoma cell line growth inhibition [CLK]. To be noted: for viability, T/C: stronger effect = lower value. The essentials:
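Multi-cell-type spheroids combined patient-derived tumor cells with HUVEC endothelial cells and human mesenchymal stem cells. Paired agents were dosed in half-log steps down from about clinical Cmax, or from 10 microM where Cmax was unknown.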

Several values for one entry are separate records, joined by “and”; a condition that tells them apart may be missing. Equal values may be shown once.
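Further: viability measured after seven days of drug exposure.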
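Wherever viability, T/C is given: luminescence signal used as surrogate for viable cell amount; 100% = DMSO vehicle control wells.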

For orientation: IC50 means the concentration at which inhibition is half-maximal. A word on the viability, T/C: it is the result in the treated group divided by that in the control group, in per cent. Turning to `CC(=O)O[C@H]1C(=O)[C@@]2(C)[C@H]([C@H](OC(=O)c3ccccc3)[C@]3(O)C[C@H](OC(=O)[C@H](O)[C@@H](NC(=O)c4ccccc4)c4ccccc4)C(C)=C1C3(C)C)[C@]1(OC(C)=O)CO[C@@H]1C[C@@H]2O` + CN1CCN(c2cc(C(=O)Nc3cc4cc(-c5cnn(C)c5)ccc4cn3)ccn2)CC1, the IC50 is less than 31.6 nM (curve of first compound, second compound 0.0316 µM); less than 31.6 nM (curve of first compound, second compound 0.1 µM); less than 31.6 nM (curve of first compound, second compound 0.316 µM); less than 31.6 nM (curve of first compound, second compound 1 µM); less than 31.6 nM (curve of first compound, second compound 3.16 µM); less than 31.6 nM (curve of first compound, second compound 10 µM). Besides, the viability, T/C runs as follows: (second compound 0.0316 µM, first compound 0.0316 µM) 22.1%; (second compound 0.0316 µM, first compound 0.1 µM) 11.1%; (second compound 0.0316 µM, first compound 0.316 µM) 11.2%; (second compound 0.0316 µM, first compound 1 µM) 10.7%; (second compound 0.0316 µM, first compound 3.16 µM) 11.2%; (second compound 0.0316 µM, first compound 10 µM) 12.3%. Moreover, the viability, T/C is 12.3% (second compound 0.1 µM, first compound 0.0316 µM); 10.6% (second compound 0.1 µM, first compound 0.1 µM); 10.9% (second compound 0.1 µM, first compound 0.316 µM); 9.64% (second compound 0.1 µM, first compound 1 µM); 9.88% (second compound 0.1 µM, first compound 3.16 µM); 11.4% (second compound 0.1 µM, first compound 10 µM). For the same compound, the viability, T/C is 10.7% (second compound 0.316 µM, first compound 0.0316 µM); 10.2% (second compound 0.316 µM, first compound 0.1 µM); 10.4% (second compound 0.316 µM, first compound 0.316 µM); 9.61% (second compound 0.316 µM, first compound 1 µM); 10.3% (second compound 0.316 µM, first compound 3.16 µM); 13.2% (second compound 0.316 µM, first compound 10 µM). The viability, T/C is, setting by setting: (second compound 1 µM, first compound 0.0316 µM) 0.12%; (second compound 1 µM, first compound 0.1 µM) 0.32%; (second compound 1 µM, first compound 0.316 µM) 0.16%; (second compound 1 µM, first compound 1 µM) 0.11%; (second compound 1 µM, first compound 3.16 µM) 0.15%; (second compound 1 µM, first compound 10 µM) 0.21%. Further, the viability, T/C (second compound 3.16 µM, first compound 0.0316 µM) was 0.05%; the viability, T/C (second compound 3.16 µM, first compound 0.1 µM) is 0.19%; the viability, T/C (second compound 3.16 µM, first compound 0.316 µM) was 0.17%; the viability, T/C (second compound 3.16 µM, first compound 1 µM) was 0.06%; the viability, T/C (second compound 3.16 µM, first compound 3.16 µM) is 0.09%; the viability, T/C (second compound 3.16 µM, first compound 10 µM) is 0.14%. The viability, T/C reads like this: (second compound 10 µM, first compound 0.0316 µM) 0.07%; (second compound 10 µM, first compound 0.1 µM) 0.11%; (second compound 10 µM, first compound 0.316 µM) 0.51%; (second compound 10 µM, first compound 1 µM) 0.1%; (second compound 10 µM, first compound 3.16 µM) 0.17%; (second compound 10 µM, first compound 10 µM) 0.23%.

For `COc1cccc2c1C(=O)c1c(O)c3c(c(O)c1C2=O)CC(O)(C(=O)CO)CC3OC1CC(N)C(O)C(C)O1` (stereo unspecified), the viability, T/C (compound 0.0316 µM) is 49.4% and 85.7%; the viability, T/C (compound 0.1 µM) is 38.7% and 47.7%; the viability, T/C (compound 0.316 µM) is 28.3% and 46.2%; the viability, T/C (compound 1 µM) was 7.17% and 21%; the viability, T/C (compound 3.16 µM) is 7.34% and 13.8%; the viability, T/C (compound 10 µM) was 0.22% and 0.15%. Further, the IC50 (curve of compound) is < 31.6 nM and 159 nM.

With `C#Cc1c(F)ccc2cc(O)cc(-c3ncc4c(N5CC6CCC(C5)N6)nc(OCC56CCCN5CC(F)C6)nc4c3F)c12` (stereo unspecified), the viability, T/C is, setting by setting: (compound 0.0316 µM) 107% and 94.2%; (compound 0.1 µM) 103% and 96.3%; (compound 0.316 µM) 99.5% and 107%; (compound 1 µM) 103% and 97.3%; (compound 3.16 µM) 89.2% and 66.9%; (compound 10 µM) 80.6% and 52.9%. Moreover, under “curve of compound”, the half-maximal inhibitory concentration (IC50) is greater than 10000 nM.
